Assays:
[1] = tested on: esophageal stricture after entire circumference (100%) ESD; experiment: esophageal entire circumference (100%) ESD model, degree of esophageal stricture by macroscopical findings and histopathological analysis (Masson staining); type: in vivo
Text: For the production of an esophageal entire circumference (100%) ESD model, miniature pigs for experiments were used.
As miniature pigs, three groups of a physiological saline administered group, a steroid preparation (Kenacort) administered group, and a CHST15 siRNA (manufactured by Hokkaido System Science Co., Ltd., lot number: 40481638) administered group were used (n=1/group). The miniature pig in each group was orally inserted with an upper gastrointestinal endoscope under general anesthesia and respiratory control, and an entire circumference (100%) ESD was performed using a dual knife with a total length of […] between 15 cm and 25 cm from the portal dentition. Into an entire circumference artificial ulcer immediately after preforming ESD was injected 2 mL in total of an administration solution (physiological saline, steroid preparation, CHST15 siRNA, 250 nM solution) using an endoscopic injection needle at a total of 20 locations so as to evenly cover the entire circumference from the ulcer bottom.
If no treatment is performed after ESD, esophageal stricture will develop within 2 weeks and food will not pass through, and the miniature pig will die within 4 weeks thereafter, so that the observation period after a single time administration was set to 2 weeks, the entire group was slaughtered after 2 weeks (Day 14), and the degree of esophageal stricture was investigated by macroscopical findings, and histopathological analysis (Masson staining).

[2] = tested on: stricture esophageal tissue after ESD; conditions: half circumferential (50%) ESD; Document 14; cited from earlier work
[3] = single local injection immediately after ESD, Day 14, n=1/group

CHST15 siRNA: siRNA having a structure in which the RNAs described in SEQ ID NOs:1 and 2 are hybridized; suppresses expression of the CHST15 gene (chain 1 GGAGCAGAGCAAGAUGAAUACAAUCAG; chain 2 GAUUGUAUUCAUCUUGCUCUGCUCCAU; chemistry not given here)
suppressing effect of esophageal stricture after entire circumference ESD (overall) ([1]; consideration / summary of Example 1): remarkable stricture suppressing effect
damage of the muscular layer (pathological findings, Masson staining) ([1]; pig, in vivo): no damage of the muscular layer was observed
artificial ulcer repair / regenerated epithelium (pathological findings, Masson staining) [1, 3]: almost covered with regenerated epithelium
edible state (macroscopical findings) [1, 3]: edible
esophageal stricture / obstruction (macroscopical findings) [1, 3]: no stricture or obstruction
fibrosis deeper than the ulcer floor (pathological findings, Masson staining) [1, 3]: no pathological fibrosis
shortening of esophageal length (macroscopical findings) ([1]; single local injection into artificial ulcer immediately after ESD, 2 mL in total at 20 locations (CHST15 siRNA 250 nM solution), Day 14, n=1/group): substantially not observed
fibrosis when expression of CHST15 mRNA is suppressed [2]: fibrosis is suppressed

From patent publication US12527812B2, “Esophageal stricture suppressing agent” (priority 2019, dated 2026)
